The values below come from patent US20180193391A1, “INDUCTION OF LAMINA PROPRIA REGULATORY T CELLS” (President and Fellows of Harvard College, priority 2015, published 2018).

Experiment [1] deals with colonic Rorγ^+ Tregs. The experiment can be described thus: Mono-colonization of germ free mice with single bacterial species; colonic Rorγ+ Tregs by flow cytometry. The experiment is classed as in vivo, Germfree C57BL/6J mice. As for the experimental part: A panel of bacterial species selected from the microbiota of the human gastrointestinal tract were tested for their ability to induce the production of Rorγ^+ Tregs. Bacteria were obtained from the ATCC, BEI Resources, or the German Collection of Microorganisms and Cell Cultures (DSMZ), or from the laboratory collections at Harvard Medical School. Anaerobic bacteria were cultured under strictly anaerobic conditions (80% N2, 10% H2, 10% CO2) at 37° C. in an anaerobic chamber.
Germfree C57BL/6J were maintained in sterile isolators, and were inoculated by gavage with single bacterial species at 4 weeks of age, then housed in gnobiotic isolators. After 2 weeks, mice were sacrificed, colon tissue was harvested, cleaned of luminal content and treated with RPMI containing 1 mM DTT, 20 mM EDTA and 2% FBS at 37° C. for 15 min to remove epithelial cells. The colon tissue was then minced and dissociated in collagenase solution (1.5 mg/ml collagenase II (Gibco), 0.5 mg/ml dispase and 1% FBS in RPMI) with constantly stirring at 37° C. for 45 min. […] Cells were analyzed with a BD LSRII flow cytometer, and data analysis was performed with FlowJo (Tree Star) software. The proportion of Rorγ^+ Tregs was determined within the total population of CD4^+FoxP3^+ Treg cells, and the significance of the difference relative to unmanipulated germfree mice determined using a two-tailed Student's T-test. […]
On the technique in general: In flow cytometry, cells or beads pass a laser one at a time.

The subject of experiment [2] is Rorγ^+ Tregs. The experiment can be described thus: IL-33 administration to mice; response of Rorγ+ Tregs. The following applies: recombinant mouse IL-33 i.p. The experiment is classed as in vivo. As for the experimental part:
Mice were bred in a pathogen-free facility or in germ-free isolators. For IL-33 administration, recombinant mouse IL-33 (BioLegend) was administered i.p. at 2 μg/injection every other day for 7 days.

Consider Bacteroides fragilis, for which the “induction of production of Rorγ^+Helios^− LP Tregs” value in experiment [1] (germ free mice colonized with single bacterial species for 2 weeks, FIGS. 4D, 4E and 5) is listed as “capable of inducing production”. Further, the “ability to promote colonic Treg production (proportions)” value in experiment [1] (within the Bacteroides genus, mono-colonized germ free mice) is “low”.

B1: IL-33: recombinant mouse IL-33 (BioLegend); alarmin (protein, UniProt Q8BVZ5 1-266, looked up)
Interleukin-33: MRPRMKYSNSKISPAKFSSTAGEALVPPCKIRRSQQKTKEFCHVYCMRLRSGLTIRKETSYFRKEPTKRYSLKSGTKHEENFSAYPRDSRKRSLLGSIQAFAASVDTLSIQGTSLLTQSPASLSTYNDQSVSFVLENGCYVINVDDSGKDQEQDQVLLRYYESPCPASQSGDGVDGKKLMVNMSPIKDTDIWLHANDKDYSVELQRGDVSPPEQAFFVLHKKSSDFVSFECKNLPGTYIGVKDNQLALVEEKDESCNNIMFKLSKI
With B1, the “response of Rorγ^+ Tregs to IL-33” value in experiment [2] is listed as “do not respond”.
